According to ChEMBL document CHEMBL3507680, “University of Dundee, Gates Library screen for HepG2 cell viability”:

experiment: Human HepG2 cell viability assay in 384 well format; format: toxicity, cell-based; design: dose 125 nL, time 70.5 hour; cytotoxicity at 70.5 h: concentration not given beside the values; details: HepG2 cells, read-out: Inhibition

| Structure (SMILES) | cytotoxicity at 70.5 h [%] |
| --- | --- |
| O=c1[nH]cc(N2CCCCCC2)c(=O)[nH]1 | 9.28 |
| Cc1nnc2n1CCN(C(C(N)=O)c1ccc(F)cc1)C2 (configuration not stated) | -16.8 |
| Cc1nn(Cc2ccc(F)cc2)c2[nH]nc(N)c12 | -9.36 |
| O=C(Nc1ccc(F)c(Br)c1)N1CCCC1 | -1.36 |
| Cc1ccc(-c2nnc([C@H]3CCN(C4CCC4)C3)o2)cc1 | 16.3 |
| COc1ccc(-c2nnc([C@H]3CCN(C4CCC4)C3)o2)cc1 | -0.264 |
| CC(C)(C)CN1CC[C@H](c2nnc(Cc3c[nH]c4ccccc34)o2)C1 | 15.2 |
| O=C1CO[C@H]2CN(C3CCOCC3)C[C@H]2N1Cc1ccc(F)cc1 | 16.1 |
| Fc1cccc(-c2c[nH]c([C@@H]3COCCN3C3CCOCC3)n2)c1 | -8.23 |
| Cc1ccc2[nH]c([C@H]3CCN(CC4CCCCC4)C3)nc2c1 | 5.77 |
| Cc1ccc(CNC2(Cc3cc(CC(C)C)on3)COC2)o1 | 9.27 |
| CC1(C)[C@H](Cc2cc(CN3CCCCC3)on2)C[C@@H]1NC(=O)C1CC1 | 10.2 |
| CC[C@H]1CN2CC[C@H]1C[C@@H]2CNCc1cccc(C#N)c1 | 13 |
| Cc1ccccc1CN1CC[C@H](c2nnc(-c3cncn3C)o2)C1 | 1.18 |
| c1cncc(-c2nnc([C@H]3CCN(CC4CC4)C3)o2)c1 | 8.27 |
| Fc1ccc(OCc2nnc([C@H]3CCN(Cc4ccccn4)C3)o2)cc1 | -7.48 |
| CC(C)N1CC[C@H](c2nnc(Cc3c[nH]c4ccccc34)o2)C1 | -4.41 |
| F[C@@H]1CN(Cc2cccnc2)C[C@@H]1OCc1nc2ccccc2[nH]1 | -3.79 |
| CN1C(=O)CO[C@H](c2ccc(NC(=O)NC(C)(C)C)cc2)[C@H]1CO | -0.339 |
| N#Cc1ccc(CN2C[C@@H](F)[C@@H](OCc3nc4cnccc4[nH]3)C2)cc1 | -1.95 |
| COc1ccccc1CN1C[C@@H](F)[C@@H](OCc2nc3cnccc3[nH]2)C1 | -4.23 |
| F[C@@H]1CN(CC2CC2)C[C@@H]1OCc1nc2ccccc2[nH]1 | 14.4 |

| Structure (SMILES) | cytotoxicity at 70.5 h [%] |
| --- | --- |
| Cc1cccc2c1nc1n2[C@@H](CNC(=O)c2ccncc2)COC1 | -3.38 |
| COc1ccc(CNC[C@H]2COCc3nc4cc(F)ccc4n32)cn1 | -18.3 |
| COc1ccc2nc(C[C@@H]3C[C@@H](C(C)C)[C@H](CN)C=C3C)[nH]c2n1 | -4.84 |
| CCS(=O)(=O)c1ccc2oc([C@H]3CCN(Cc4ccncc4)C3)nc2c1 | 6.63 |
| COC(=O)[C@H]1CN(C(=O)NC(C)C)CCN1C(=O)c1cccs1 | -5.45 |
| O=C(NCc1cccnc1)[C@H]1CN2CCC1C[C@@H]2Cn1cc(CO)nn1 (some centres not stated) | -6.61 |
| Cc1cccc(-c2noc([C@@H]3Cc4nc[nH]c4CN3)n2)c1 | -3 |
| CC1=C[C@@H](CN2CCC(CO)CC2)[C@H](C(C)C)C[C@H]1Cc1nnc(C)o1 | -1.39 |
| COCCOc1ccnc(-c2noc([C@@H]3CCCN3CC(C)C)n2)c1 | -5.97 |
| c1cc(-c2noc([C@@H]3CCCN3C3CCC3)n2)cc(N2CCCC2)n1 | -6.56 |
| CC(C)CN1C[C@@H]2OCC(=O)N(c3ccccc3)[C@@H]2C1 | -15.4 |
| O=C1CO[C@H]2CN(S(=O)(=O)c3ccccc3)C[C@H]2N1CC1CCCCC1 | -11.1 |
| CC(C)NC(=O)N[C@H]1C[C@@H](c2nc(-c3ccc(F)cc3)no2)N(C)C1 | -4.13 |
| Cc1ccc(CN2CC[C@H](c3nc4cccc(C(N)=O)c4[nH]3)C2)cc1 | 31.1 |
| O=C(NC[C@H]1C[C@@H]2CCN1C[C@@H]2CN1CCCC1)c1ccco1 | -4.55 |
| Clc1ccc(-c2nnc([C@H]3CCN(C4CCCCC4)C3)o2)cc1 | -3.54 |
| COCc1cc(CC2(NC3CCCCC3)COC2)no1 | 9.57 |
| CC1(C)[C@H](Cc2cc(CN3CCOCC3)on2)C[C@@H]1NC(=O)C1CCC1 | 11.5 |
| CN(C)[C@H]1C[C@@H](Cc2cc(CO)on2)C1(C)C | -14.4 |
| COc1ccc(CN[C@@H]2CO[C@H](CNC(=O)N3CCOCC3)[C@H]2O)cc1 | 2.1 |
| CC(C)(C)CC(=O)N[C@@H]1CO[C@H](CNC(=O)c2ccncc2)[C@H]1O | -2.51 |
| COCc1cc(C[C@@H]2CC[C@H](O)[C@@H](CN(CC(C)C)CC(C)C)O2)no1 | -0.301 |

| Structure (SMILES) | cytotoxicity at 70.5 h [%] |
| --- | --- |
| O=C(NC[C@H]1OC[C@@H](NCc2cccs2)[C@@H]1O)N1CCOCC1 | 8.48 |
| Cc1ccc(CNC2(Cc3cc(-c4ccccc4)on3)COC2)o1 | -0.988 |
| CC(C)CN1CC[C@H](c2nnc(COc3ccc(F)cc3)o2)C1 | -3.77 |
| O=C1C[C@@H]2CCN(Cc3ccccc3)C[C@@H]2CCN1c1ccccc1 | 6.43 |
| CN1CCOC[C@H]1c1nc(C(C)(C)C)c[nH]1 | 11.4 |
| CN1CCOC[C@H]1c1nc(-c2cccnc2)c[nH]1 | -7.84 |
| CN(C)[C@@H]1CO[C@H](CNC(=O)Nc2ccccc2)[C@H]1O | -1.04 |
| O[C@H]1CC[C@@H](Cc2cc(-c3ccc(F)cc3)on2)O[C@@H]1CNCC1CC1 | -5.85 |
| CCCN1C(=O)[C@@H]2[C@@H](CCN2C(=O)COC)N(Cc2cccs2)C1=O | 11.5 |
| CC(=O)NC[C@@H]1C=C(C)[C@H](CC(=O)NCCN(C)C)C[C@H]1C(C)C | 23.8 |
| O=C(NCc1ccc(Cl)cc1)[C@@H]1Cc2[nH]cnc2CN1CC1CC1 | -6.64 |
| O=C(N[C@@H]1CNCCC[C@H]1O)c1ccc(OCCN2CCCC2)cc1 | -3.24 |
| Nc1ncncc1-c1noc([C@@H]2CCCN2Cc2cccnc2)n1 | -9.55 |
| O=C1CO[C@H]2CN(S(=O)(=O)c3ccccc3)C[C@H]2N1Cc1ccccn1 | -15 |
| O=C(NC[C@H]1OC[C@@H](NC2COC2)[C@@H]1O)Nc1ccccc1 | -1.19 |
| CC(C)NC(=O)O[C@H]1COCCN(c2nc3ccccc3s2)C1 | -5.43 |
| COCCO[C@H]1COCCN(C2CCN(C)CC2)C1 | 12.5 |
| Cn1nc(CNC(=O)CN2C(=O)CCC2=O)cc1C1CC1 | 1.45 |
| Cn1nc(CNC(=O)C2CCN(S(C)(=O)=O)CC2)cc1C1CC1 | -3.55 |
| O=C(NCc1cc(C2CC2)n(C2CCCC2)n1)C1CC1 | -9.71 |
| CCOCC(=O)NCc1cc(C2CC2)n(C2CCCC2)n1 | 0.0223 |
| COc1ccc(S(=O)(=O)C2CCN(C(=O)c3cc(C)cs3)CC2)cc1 | 1.95 |

| Structure (SMILES) | cytotoxicity at 70.5 h [%] |
| --- | --- |
| Cn1cnnc1S(=O)(=O)C1CCN(C(=O)c2ccco2)CC1 | 10.3 |
| O=C(CCc1ccccc1Br)N1CC(S(=O)(=O)C2CCCCC2)C1 | -5.63 |
| O=C(c1ccco1)N1CC(S(=O)(=O)c2ccc(Cl)cc2)C1 | -10.1 |
| O=C(NC1CCN(c2nccs2)CC1)c1cccs1 | 10.5 |
| Cc1cccc(CC(=O)Nc2cnn(C3CCOC3)c2)c1 (configuration not stated) | -13.6 |
| COC(CNC(=O)C1CCCC1)c1ccc(C)s1 (configuration not stated) | -1.8 |
| COC(CNC(=O)c1cc(C)on1)c1ccccc1C (configuration not stated) | -2.28 |
| CCC(CNC(=O)OC)(OC)c1ccccc1 (configuration not stated) | -0.855 |
| O=C(Nc1ccccc1)C1CCCN(c2cc(-n3cncn3)ncn2)C1 (configuration not stated) | -1.76 |
| O=C(CN1CCOCC1)Nc1ccc(C(F)(F)F)cc1Cl | 14.6 |
| CCOC(=O)N1CCNC(c2cccs2)C1 (configuration not stated) | 21.8 |
| NCc1cnc(Nc2ccccc2)nc1 | -17.3 |
| CNCc1cnc(Nc2ccccc2)nc1 | -5.59 |
| COCC(=O)N1CCC2(CCC(C(=O)N3CCCC3)O2)CC1 (configuration not stated) | 10.4 |
| CCN1C(=O)CCC12CCN(S(=O)(=O)c1ccc(C#N)cc1)CC2 | 15.5 |
| CCN1C[C@H]2CCN(C(=O)Nc3ccccc3C)CC[C@H]2S1(=O)=O | 15.6 |
| Cc1ccccc1NC(=O)N1CC[C@@H]2CN(CC(C)C)S(=O)(=O)[C@@H]2CC1 | -9.9 |
| CCS(=O)(=O)N1CCC2(CCCC(=O)N2C)CC1 | -11 |
| CCN1C(=O)CC[C@]12CC[C@@H](NC(=O)c1cc(C)on1)CC2 | -7.54 |
| CN1C(=O)CCC12CCN(S(=O)(=O)c1ccccc1)CC2 | -13.4 |
| CCN1C(=O)C[C@@H]2[C@@H]1CCN2S(=O)(=O)c1ccccc1 | -12.3 |
| CC(=O)N1CC2(CCN(S(=O)(=O)N(C)C)CC2)C2(CCNC2=O)C1 (configuration not stated) | -1.55 |

| Structure (SMILES) | cytotoxicity at 70.5 h [%] |
| --- | --- |
| Cc1ccsc1CN(Cc1ccccn1)CC(C)C | -6.06 |
| CCCc1cc(C(=O)N(C)Cc2cnc3ccccc3n2)n(C)n1 | -4.51 |
| CC(C)c1cc(NCC(O)c2ccc(F)cc2)n2nccc2n1 (configuration not stated) | 0.769 |
| N#CC1CCCN(c2nc(-c3ccccc3)nc3c2CCNCC3)C1 (configuration not stated) | 6.37 |
| Cc1nc[nH]c1-c1nc2cc(S(=O)(=O)N3CCCC3)ccc2n1C | -2.05 |
| CN1CC(c2ccccc2)CC12CCN(C(=O)c1c(Cl)cnn1C)CC2 (configuration not stated) | -7.56 |
| COC(C(=O)N1CCN(c2cccc(Cl)c2)C(=O)C1)c1ccccc1 (configuration not stated) | -7.64 |
| Cc1ccccc1CSc1nc(N)cc(N2CC[C@@H](O)C2)n1 | -6.37 |
| Cc1nc(CN2CCCC2c2nc(C(C)C)no2)cs1 (configuration not stated) | -2.96 |
| Cc1nc(N2CCN(C)CC2)ncc1C(=O)N1CC(C)(C)C(C)(O)C1 (configuration not stated) | 14.1 |
| CN(C)CCNC(=O)c1ccc(OC2CCN(S(C)(=O)=O)CC2)c(Cl)c1 | -9.41 |
| Cc1ccc(F)cc1C(=O)N1C[C@@H](CN2CCOCC2)[C@@H](CO)C1 | -6.59 |
| C[C@@H]1CN(C2(C(=O)N3CCOCC3)Cc3ccccc3C2)C[C@H](C)O1 | 2.82 |
| O=C(C1CC1)N1CC2(CCNCC2)C1 | -8.48 |
| O=C(C1CCC2(CCN(CC3CC3)CC2)O1)N1CCCC1 (configuration not stated) | -7.11 |
| COc1cc(N2CCC3(CC2)CC(N2CCOCC2)C3)ncn1 | -16 |
| O=C(NC1CC1)N1CCC2(CC1)C(=O)NCCN2Cc1ccccc1 | -13.6 |
| COc1ccc(C[C@H]2CN(C3CCOCC3)CC[C@H]2OCC2CC2)cc1 | 20 |
| COc1cc(N2CCC3(CC2)CC(N2CCN(C)CC2)CO3)ncn1 (configuration not stated) | -20.9 |
